Laboratory results taken from patent publication EP4810499A1, “TREATMENT OF BEHÇET'S DISEASE” (Ganzhou Hemay Pharmaceutical, Co., Ltd, priority 2023, dated 2025).

Tested on: healthy Chinese subjects
Experiment: Phase I clinical trial, multiple oral administrations (Example 6)
Type: in vivo, human
Conditions: 15 mg BID, 30 mg BID, 60 mg BID and 75 mg BID, 36 healthy Chinese subjects
Protocol: A Phase I clinical trial enrolling a total of 36 healthy Chinese subjects was conducted, with multiple oral administrations of the compound of Example 2 at doses of 15 mg BID, 30 mg BID, 60 mg BID and 75 mg BID, and placebo, respectively.

CCOc1cc([C@@H](CS(C)(=O)=O)N2C(=O)c3csc(NC(C)=O)c3C2=O)ccc1OC [Example 2, (S)-N-[5-[1-(3-ethoxy-4-methoxyphenyl)-2-(methylsulfonyl)ethyl]-4,6-dioxo-5,6-dihydro-4H-thieno[3,4-c]pyrrol-1-yl]acetamide]
safety and tolerability: favorable safety and good tolerability
